Laboratory results reported in US5047406A, “Substituted cyclohexanols as central nervous system agents” (Warner-Lambert Co., priority 1990, dated 1991).
Where two headings read alike, the source gives them in different places.

Experiments:
[1] = system: Locomotor Activity in Mice; test: Inhibition of locomotor activity in mice; type: in vivo; details: for Inhibition of Locomotor Activity in Mice ED50: IP; for ED50: Mus musculus, ip
From the text: (§1) The above test methods are incorporated herein by reference.

[2] = molecular target: T1, [^3 H]-Spiroperidol Binding (Homo sapiens, UniProt P14416); test: Inhibition of [^3 H]-spiroperidol binding in a receptor assay
T1 construct: receptor assay described by D. Grigoriadis and P. Seeman, Journal of Neurochemistry, Volume 44, pages 1925-1935 (1985); from tissue
From the text: as §1

[3] = read-out: Inhibition of [^3 H]-Spiroperidol Binding IC50

T1 sequence (P14416 whole entry): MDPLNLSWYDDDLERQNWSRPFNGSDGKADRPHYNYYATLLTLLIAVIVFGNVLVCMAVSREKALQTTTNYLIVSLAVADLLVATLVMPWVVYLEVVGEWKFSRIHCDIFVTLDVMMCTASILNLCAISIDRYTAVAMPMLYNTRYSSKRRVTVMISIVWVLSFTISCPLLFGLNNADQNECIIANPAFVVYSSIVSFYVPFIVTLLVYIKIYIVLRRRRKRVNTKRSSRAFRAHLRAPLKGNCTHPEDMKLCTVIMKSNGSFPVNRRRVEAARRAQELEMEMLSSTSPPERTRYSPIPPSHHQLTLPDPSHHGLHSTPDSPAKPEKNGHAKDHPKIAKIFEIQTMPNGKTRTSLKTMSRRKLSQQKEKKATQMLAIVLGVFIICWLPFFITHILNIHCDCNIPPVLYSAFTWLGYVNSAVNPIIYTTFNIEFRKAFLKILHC

| IC50 [2, 3] [nM] | Compound | Inhibition of Locomotor Activity in Mice ED50 [1] [mg/kg] | ED50 [1] [mg/kg] | IC50 ([2]; Inhibition of [^3 H]-Spiroperidol Binding IC50) [nM] |
| --- | --- | --- | --- | --- |
|  | OC1(c2ccccn2)CCC(N2CCN(c3ncccn3)CC2)CC1 (stereo not drawn) [Example 18, trans-1-(2-Pyridinyl)-4-[4-(2-pyrimidinyl)-1-piperazinyl]cyclohexanol] | > 30 |  |  |
| 847 | OC1(c2cccnc2)CCC(CCN2CCN(c3ccccn3)CC2)CC1 (centres unmarked) [Example 10, 1-(3-Pyridinyl)-4-[2-[4-(2-pyridinyl)-1-piperazinyl]ethyl]cyclohexanol] |  | 0.37 |  |
| 2700 | OC1(c2ccsc2)CCC(N2CCN(c3ccccn3)CC2)CC1 (centres unmarked) [Example 25, 4-[4-(2-Pyridinyl)-1-piperazinyl]-1-(3-thienyl)cyclohexanol] |  | 2.4 |  |
| 333 | OC1(c2ccc(Cl)cc2)CCC(N2CCN(c3ccccn3)CC2)CC1 (stereo not drawn) [Example 1, trans-1-(4-Chlorophenyl)-4-[4-(2-pyridinyl)-1-piperazinyl]cyclohexanol] | 2.3 |  |  |
|  | OC1(c2cccs2)CCC(N2CCN(c3ccccn3)CC2)CC1 (centres unmarked) [Example 24, 4-[4-(2-Pyridinyl)-1-piperazinyl]-1-(2-thienyl)cyclohexanol] |  | > 30 |  |
|  | OC1(c2ccccn2)CCC(N2CCN(c3ccccn3)CC2)CC1 (stereo not drawn) [Example 20, trans-1-(2-Pyridinyl)-4-[4-(2-pyridinyl)-1-piperazinyl]cyclohexanol] | > 30 |  |  |
| 12500 | OC1(c2cccnc2)CCC(N2CCN(c3ccccn3)CC2)CC1 (stereo not drawn) [Example 22, trans-1-(3-Pyridinyl)-4-[4-(2-pyridinyl)-1-piperazinyl]cyclohexanol] | 30 |  |  |
| 816 | OC1(c2ccc(Cl)cc2)CCC(N2CCN(c3ccccn3)CC2)CC1 (stereo not drawn) [Example 1a, cis-1-(4-Chlorophenyl)-4-[4-(2-pyridinyl)-1-piperazinyl]cyclohexanol] | 0.86 |  |  |
|  | OC1(c2cccnc2)CCC(N2CC=C(c3ccccc3)CC2)CC1 (stereo not drawn) [Example 29, trans-4-(3,6-Dihydro-4-phenyl-1(2H)-pyridinyl)-1-(3-pyridinyl)cyclohexanol] | 25.6 |  |  |
| 2780 | OC1(c2ccccn2)CCC(N2CCN(c3ccccn3)CC2)CC1 (stereo not drawn) [Example 21, cis-1-(2-Pyridinyl)-4-[4-(2-pyridinyl)-1-piperazinyl]cyclohexanol] | 2.3 |  |  |
| 1660 | OC1(c2ccccc2)CCC(N2CCN(c3ccccn3)CC2)CC1 (centres unmarked) [Example 27, 1-Phenyl-4-[4-(2-pyridinyl)-1-piperazinyl]cyclohexanol] |  | 0.83 |  |
| 1550 | OC1(c2nccs2)CCC(CCN2CCN(c3ccccn3)CC2)CC1 (centres unmarked) [Example 9, 4-[2-[4-(2-Pyridinyl)-1-piperazinyl]ethyl]-1-(2-thiazolyl)cyclohexanol] |  | 1 |  |
|  | OC1(c2ccccn2)CCC(N2CCN(c3ncccn3)CC2)CC1 (stereo not drawn) [Example 19, cis-1-(2-Pyridinyl)-4-[4-(2-pyrimidinyl)-1-piperazinyl]cyclohexanol] | 13.0 |  |  |
| 7790 | O=C(N[C@H]1CC[C@H](N2CCN(c3ccccn3)CC2)CC1)c1ccc(Cl)cc1 [Example 43, trans 4-Chloro-N-[4-[4-(2-pyridinyl)-1-piperazinyl]cyclohexyl]benzamide] |  | 0.78 |  |
| 530 | COc1ccccc1C(=O)N[C@H]1CC[C@H](N2CCN(c3ccccn3)CC2)CC1 [Example 41, trans N-[4-[4-(2-Pyridinyl)-1-piperazinyl]cyclohexyl]-2-methoxybenzamide] |  | 1.9 |  |
| 670 | COc1ccc(C2(O)CCC(N3CCN(c4ccccn4)CC3)CC2)cc1 (centres unmarked) [Example 26, 1-(4-Methoxyphenyl)-4-[4-(2-pyridinyl)-1-piperazinyl]cyclohexanol] |  | 0.3 |  |
| 1160 | OC1(c2cccnc2)CCC(N2CCN(c3ccccn3)CC2)CC1 (stereo not drawn) [Example 23, cis-1-(3-Pyridinyl)-4-[4-(2-pyridinyl)-1-piperazinyl]cyclohexanol] | 1.6 |  |  |
| 620 | O=C(N[C@H]1CC[C@H](CCN2CCN(c3ccccn3)CC2)CC1)c1ccc(Cl)cc1 [Example 57, trans 4-Chloro-N-[4-[2-[4-(2-pyridinyl)-1-piperazinyl]ethyl]cyclohexyl]benzamide] |  | 0.51 |  |
|  | OC1(c2ccccn2)CCC(N2CC=C(c3ccccc3)CC2)CC1 (centres unmarked) [Example 28, 4-(3,6-Dihydro-4-phenyl-1(2H)-pyridinyl)-1-(2-pyridinyl)cyclohexanol] |  | 1.8 |  |
| 1620 | O=C(N[C@H]1CC[C@@H](CCN2CCN(c3ccccn3)CC2)CC1)c1ccc(Cl)cc1 [Example 56, cis 4-Chloro-N-[4-[2-[4-(2-pyridinyl)-1-piperazinyl]ethyl]cyclohexyl]benzamide] |  | 6.3 |  |
| 1050 | OC1(c2ccccn2)CCC(CCN2CCN(c3ccccn3)CC2)CC1 (centres unmarked) [Example 6, 1-(2-Pyridinyl)-4-[2-[4-(2-pyridinyl)-1-piperazinyl]ethyl]cyclohexanol] |  | 0.34 |  |
| 2520 | O=C(N[C@H]1CC[C@H](N2CCN(c3ccccn3)CC2)CC1)c1cccs1 [Example 44, trans N-[4-[4-(2-Pyridinyl)-1-piperazinyl]cyclohexyl]-2-thiophenecarboxamide] |  | 0.29 |  |
|  | OC1(c2cccs2)CCC(CCN2CC=C(c3ccccc3)CC2)CC1 (stereo not drawn) [Example 13, cis-4-[2-(3,6-Dihydro-4-phenyl-1(2H)-pyridinyl)ethyl]-1-(2-thienyl)cyclohexanol] |  | 2 | 51 |
| 3900 | OC1(c2cccs2)CCC(CN2CCN(c3ccccn3)CC2)CC1 (stereo not drawn) [Example 17, cis-4-[[4-(2-Pyridinyl)-1-piperazinyl]methyl]-1-(2-thienyl)cyclohexanol] | 5.2 |  |  |
| 830 | Cc1ccc(C(=O)N[C@H]2CC[C@@H](CCN3CCN(c4ccccn4)CC3)CC2)cc1 [Example 55, cis 4-Methyl-N-[4-[2-[4-(2-pyridinyl)-1-piperazinyl]ethyl]cyclohexyl]benzamide] |  |  |  |
|  | O=C(N[C@H]1CC[C@@H](CCN2CC=C(c3ccccc3)CC2)CC1)c1ccccc1 [Example 69, cis N-[4-[2-(3,6-Dihydro-4-phenyl-1(2H)-pyridinyl)ethyl]cyclohexyl]benzamide] |  | 2.1 |  |
|  | OC1(c2cccs2)CCC(CN2CCN(c3ccccn3)CC2)CC1 (stereo not drawn) [Example 16, trans-4-[[4-(2-Pyridinyl)-1-piperazinyl]methyl]-1-(2-thienyl)cyclohexanol] |  | 4.3 |  |

| Compound | IC50 [2, 3] [nM] | Inhibition of Locomotor Activity in Mice ED50 [1] [mg/kg] | ED50 [1] [mg/kg] | IC50 ([2]; Inhibition of [^3 H]-Spiroperidol Binding IC50) [nM] |
| --- | --- | --- | --- | --- |
| O=C(N[C@H]1CC[C@@H](CCN2CC=C(c3ccccc3)CC2)CC1)c1cccs1 [Example 70, cis N-[4-[2-(3,6-Dihydro-4-phenyl-1(2H)-pyridinyl)ethyl]cyclohexyl]-2-thiophenecarboxamide] | 280 |  |  |  |
| O=C(N[C@H]1CC[C@H](N2CC=C(c3ccccc3)CC2)CC1)C1CCCCC1 [Example 50, trans N-[4-(3,6-Dihydro-4-phenyl-1(2H)-pyridinyl)cyclohexyl]cyclohexanecarboxamide] | 1600 |  | 1.1 |  |
| OC1(c2cccnc2)CCC(N2CC=C(c3ccccc3)CC2)CC1 (stereo not drawn) [Example 30, cis-4-(3,6-Dihydro-4-phenyl-1(2H)-pyridinyl)-1-(3-pyridinyl)cyclohexanol] | 1250 | 1.3 |  |  |
